In the supplement of paper PMC10307832:

How the values were obtained:
Assay in all cases: relative viability (nuclei count vs DMSO), 5 days (fraction); higher = more cells survive
Selumetinib + Linsitinib = compound: Cn1cnc2c(F)c(Nc3ccc(Br)cc3Cl)c(C(=O)NOCCO)cc21 [Selumetinib] + C[C@]1(O)C[C@@H](c2nc(-c3ccc4ccc(-c5ccccc5)nc4c3)c3c(N)nccn32)C1 [Linsitinib] (partner 1 µM)
How it was run: (§1)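 Relative viability is defined as nuclei in treated wells over nuclei in vehicle wells. Duplicate plates were run and medians reported. Lung cancer cell lines in 1536-well plates were dosed by pin tool one day after seeding, with one drug or with a fixed anchor-drug dose plus five library-drug doses (not always all listed) in √10 steps, and nuclei were counted after 5 days.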

Selumetinib + Alpelisib = compound: Cn1cnc2c(F)c(Nc3ccc(Br)cc3Cl)c(C(=O)NOCCO)cc21 [Selumetinib] + Cc1nc(NC(=O)N2CCC[C@H]2C(N)=O)sc1-c1ccnc(C(C)(C)C(F)(F)F)c1 [Alpelisib] (partner 2 µM)
How it was run: as §1

Selumetinib + OSI-027 = compound: Cn1cnc2c(F)c(Nc3ccc(Br)cc3Cl)c(C(=O)NOCCO)cc21 [Selumetinib] + COc1cccc2cc(-c3nc([C@H]4CC[C@H](C(=O)O)CC4)n4ncnc(N)c34)[nH]c12 [OSI-027] (partner 0.5 µM)
How it was run: as §1

Selumetinib + Vorinostat = compound: Cn1cnc2c(F)c(Nc3ccc(Br)cc3Cl)c(C(=O)NOCCO)cc21 [Selumetinib] + O=C(CCCCCCC(=O)Nc1ccccc1)NO [Vorinostat] (partner 1 µM)
How it was run: as §1

Cell Line	relative viability (Selumetinib + Linsitinib; first compound 0.02 µM)	relative viability (Selumetinib + Linsitinib; first compound 0.06325 µM)	relative viability (Selumetinib + Linsitinib; first compound 0.2 µM)	relative viability (Selumetinib + Linsitinib; first compound 0.6325 µM)	relative viability (Selumetinib + Alpelisib; first compound 0.02 µM)	relative viability (Selumetinib + Alpelisib; first compound 0.06325 µM)	relative viability (Selumetinib + Alpelisib; first compound 0.2 µM)	relative viability (Selumetinib + Alpelisib; first compound 0.6325 µM)	relative viability (Selumetinib + OSI-027; first compound 0.02 µM)	relative viability (Selumetinib + OSI-027; first compound 0.06325 µM)	relative viability (Selumetinib + OSI-027; first compound 0.2 µM)	relative viability (Selumetinib + OSI-027; first compound 0.6325 µM)	relative viability (Selumetinib + Vorinostat; first compound 0.02 µM)	relative viability (Selumetinib + Vorinostat; first compound 0.06325 µM)	relative viability (Selumetinib + Vorinostat; first compound 0.2 µM)	relative viability (Selumetinib + Vorinostat; first compound 0.6325 µM)
NCI-H1299	0.996	0.833	0.88	0.677	1.04	1.03	1.03	0.697	–	–	–	–	–	–	–	–
ABC-1	0.794	0.678	0.607	0.614	0.826	0.743	0.852	0.643	0.373	0.403	0.367	0.345	1.29	0.922	0.982	1.04
NCI-H2170	–	–	–	–	0.763	0.828	0.736	0.658	0.712	0.714	0.664	0.684	0.905	0.74	0.705	0.786
NCI-H1437	0.905	0.714	0.423	0.277	0.914	0.855	0.292	0.206	0.802	0.56	0.531	0.324	0.749	0.7	0.576	0.429
EBC-1	0.917	0.844	0.933	0.518	0.779	0.591	0.556	0.361	–	–	–	–	–	–	–	–
NCI-H3122	0.933	0.817	0.766	0.728	0.551	0.492	0.353	0.366	0.709	0.512	0.417	0.291	0.988	0.651	0.84	0.651
NCI-H2023	0.583	0.546	0.466	0.576	0.592	0.429	0.471	0.547	0.392	0.348	0.318	0.375	0.617	0.554	0.524	0.559
NCI-H460	0.666	0.429	0.262	0.214	0.464	0.21	0.172	0.137	0.52	0.425	0.227	0.225	0.48	0.492	0.428	0.228
PC-3 [JPC-3]	0.95	0.876	0.92	0.727	1.02	0.935	0.9	0.752	0.712	0.752	0.749	0.787	1.02	0.663	0.748	0.734
HCC-15	0.674	0.502	0.351	0.232	0.683	0.405	0.347	0.19	0.522	0.344	0.256	0.19	0.656	0.586	0.435	0.393
NCI-H2228	0.605	0.628	0.671	0.359	0.72	0.608	0.416	0.411	0.48	0.512	0.402	0.374	0.744	0.627	0.63	0.619
NCI-H1650	–	–	–	–	–	–	–	–	0.677	0.405	0.637	0.548	0.569	0.526	0.408	0.587
NCI-H2342	–	–	–	–	–	–	–	–	0.611	0.6	0.46	0.59	0.784	0.746	0.737	0.812
NCI-H1975	1	0.886	0.892	0.623	0.643	0.511	0.413	0.37	0.8	0.57	0.676	0.527	0.726	0.605	0.582	0.473
ChaGo-K-1	–	–	–	–	–	–	–	–	0.562	0.504	0.524	0.528	0.762	0.684	0.708	0.674
NCI-H727	0.17	0.207	0.168	0.166	0.309	0.225	0.253	0.202	0.603	0.395	0.332	0.427	1.01	0.741	0.709	0.553
COR-L23	0.945	0.88	0.864	0.787	0.91	0.825	0.793	0.654	0.798	0.782	0.753	0.565	0.554	0.537	0.485	0.456
COR-L 105	1	0.828	0.606	0.623	1.29	0.746	0.767	0.6	0.612	0.46	0.467	0.343	0.779	0.829	0.598	0.47
LK-2	0.466	0.551	0.587	0.312	1.01	1.13	0.949	0.985	0.2	0.229	0.203	0.189	0.296	0.288	0.296	0.711
A549	0.489	0.436	0.363	0.349	0.675	0.438	0.311	0.296	–	–	–	–	–	–	–	–
SW 900	–	–	–	–	–	–	–	–	0.594	0.554	0.477	0.588	0.423	0.399	0.409	0.588
NCI-H1703	0.75	0.637	0.67	0.824	0.368	0.25	0.327	0.314	–	–	–	–	–	–	–	–
NCI-H1563	1.15	1.2	1.11	1.11	0.969	0.838	0.964	0.877	0.721	0.713	0.779	0.783	–	–	–	–
IA-LM	0.406	0.296	0.295	0.254	0.431	0.237	0.216	0.191	–	–	–	–	0.728	0.648	0.366	0.198
NCI-H1648	–	–	–	–	–	–	–	–	0.29	0.266	0.293	0.289	–	0.596	0.423	0.367
